Key:
HSV-2 (MS strain) [1] = experiment: External genital lesion development in primary genital HSV-2 infection of guinea pigs; assay type: in vivo, Female Hartley strain guinea pigs; design: key to Lesion Score-Day Area Under Curve: area under 0-5+ lesion score vs day curve (score-days); key to Mean Peak Lesion Score: lesion severity on 0-5+ scale; conditions: 20 mg/ml
Method: (§1) A series of studies were carried out to compare the activity of inventive antiviral Compounds 23, 76, and 82 in a primary genital HSV-2 infection of guinea pigs. The experiments were placebo-controlled and uninfected animals were treated with three concentrations of each of the preparations to assess skin irritation and determine the maximum tolerated dose.
(§2) The MS strain of HSV-2 was utilized for the experimental animal infection. Female Hartley strain guinea pigs (Charles River Breeding Laboratories, Kingston, N.Y.) weighing 250-300 g were inoculated intravaginally with 1.4×10^5 plaque forming units of HSV-2 one hour after being swabbed for the removal of vaginal secretions.
(§3) Groups of 10 infected guinea pigs were treated topically as stated above with 20 mg/ml (the maximum tolerated dose) of each compound beginning 6 h or 24 h after inoculation with HSV-2.
To determine the effect of therapy on the development and spread of external genital lesions, lesion severity was scored on a 0-5+ scale through the primary infection (21 days). Mean peak lesion scores and the areas under the lesion score-day curves were calculated and analyzed.
(§4) The number of animals infected over the number inoculated, lesion score-day areas and virus titer-day areas under the curve, peak lesion scores and peak virus titers between untreated and placebo-treated or placebo-treatedand drug-treated animals were compared using the Mann-Whitney U rank sum test. A p-value of 0.05 or less was considered significant.

HSV-2 (MS strain) [2] = experiment: Vaginal virus replication in primary genital HSV-2 infection of guinea pigs; assay type: in vivo, Female Hartley strain guinea pigs; conditions: for # Infected/# Inoculated / Mean Peak Virus Titer / P-Value for Mean Peak Virus Titer / Virus Titer-Day Area Under Curve: 20 mg/ml; for infectivity rate: treatment beginning 6 h after infection
Method: as §1, §2, §3
To determine the effect of treatment on vaginal virus replication, swabs of vaginal secretions were obtained on days 1, 3, 5, 7, and 10 after HSV-2 inoculation, placed in a tube containing 2.0 ml of media, vortexed and frozen at -70° until titrated for HSV-2. When all samples were collected, they were thawed, diluted serially and HSV-2 titers were determined using rabbit kidney cells in a microtiter CPE assay. Mean peak virus titers and areas under the virus titer-day curves were calculated and analyzed.
as §4

HSV-2 = HSV-2 plaque reduction assay; assay type: cell-based; design: unit not given beside the values; conditions: for IC50: toxicity IC50
Method: (§5) Two days prior to use, HFF cells are plated into six well plates and incubated at 37° C. with 5% CO2 and 90% humidity. On the date of assay, the drug is made up at twice the desired concentration in 2×MEM and then serially diluted 1:5 in 2×MEM using six concentrations of drug. The initial starting concentration is usually 200 μg/ml down to 0.06 μg/ml. The virus to be used is diluted in MEM containing 10% FBS to a desired concentration which will give 20-30 plaques per well. The media is then aspirated from the wells and 0.2 ml of virus is added to each well in duplicate with 0.2 ml of media being added to drug toxicity wells. The plates are then incubated for one hour with shaking every fifteen minutes. After the incubation period, an equal amount of 1% agarose was added to a equal volume of each drug dilution. This will give final drug concentrations beginning with 100 μg/ml and ending with 0.03 μg/ml and a final agarose overlay concentration of 0.5%. The drug agarose mixture is applied to each well in 2 ml volume and the plates then incubated for three days, after which the cells were stained with a 1.5% solution of neutral red. At the end of 4-6 hr incubation period, the stain is aspirated, and plaques counted using a stereomicroscope at 1×magnification.
(§6) The procedure for the liquid overlay plaque assay is similar to that using the agarose overlay. The procedure for adding the virus is the same as for the regular plaque assay. The drugs are made up in a concentration to be used in MEM with 2% FBS. The drugs are not made up at 2×concentration as in previous assays but are made up at the desired concentration. For HSV-1 and HSV-2 assays, an antibody preparation obtained from Baxter Health Care Corporation is diluted 1:500 and added to the media that the drug is diluted in. For CMV and VZV, no antibody in the overlay is utilized. For the CMV assay, additional medium without new drug is added on day six and allowed to incubate for a total of 11 days. For VZV, additional media is added on day five and incubated for a total of eight days. At the end of the incubation period for all of the assays, the medium is removed, the cells washed and then stained with 0.1% crystal violet solution for ten minutes. The cells are then rinsed several times to remove any excess crystal violet and plaques enumerated using a stereomicroscope.
(§7) I. EC50 values were also determined for each of the viruses tested for known antiviral agents. The comparison compound was ACV for all viruses except for HCMV aherein DHPG was the comparison compound. In Table 26, these comparison EC50 values are indicated with an asterisk. In Table 27, the drug FIAU (2'-fluoro-5-iodo-arabinosyl-uracil) was used as a control.

HSV-1 = HSV-1 plaque reduction assay; assay type: cell-based; design: IC50: unit not given beside the values; conditions: for IC50: toxicity IC50
Method: as §5, §6, §7

[3] = Method: A stock solution of each compound to be tested at a concentration of 5 mg/ml was prepared. The stock solution was serially diluted in Hank's Balanced Salt Solution (HBSS) to obtain final drug concentrations of 5, 2, 1, 0.5, 0.1, 0.01, 0.001 and 0.0001 mg/ml. […] In such cases, the highest dissolved concentration that could be obtained was utilized.
Concentrations of compounds 93, 96, and 23 were prepared as follows: A stock solution of each compound at a concentration of 5 mg/ml was made. This stock solution was serially diluted in Hanks Balanced Salt Solution to obtain final drug concentrations of: 5, 2, 1, 0.5, 0.1, 0.01, 0.001, and 0.0001 mg/ml. Five hundred μl of each drug concentration were added to triplicate infected monolayers.

Compound: CC1=CC(C)=[N+]2CC[N+]3=C(C)C=C(C)[O][Co-3]23([NH3+])([NH3+])[O]1.[Cl-] [Compound 23, reference compound]
- Lesion Score-Day Area Under Curve (HSV-2 (MS strain) [1]; started +6h): 0.0
- Mean Peak Lesion Score (HSV-2 (MS strain) [1]; started +6h): 0.0
- P-Value for Mean Peak Lesion Score (HSV-2 (MS strain) [1]; started +6h): < 0.001
- Lesion Score-Day Area Under Curve (HSV-2 (MS strain) [1]; started +24h): 43.8
- Mean Peak Lesion Score (HSV-2 (MS strain) [1]; started +24h): 3.4
- # Infected/# Inoculated (HSV-2 (MS strain) [2]; started +6h): 5/10
- Mean Peak Virus Titer (HSV-2 (MS strain) [2]; started +6h): 1.1
- P-Value for Mean Peak Virus Titer (HSV-2 (MS strain) [2]; started +6h): < 0.001
- Virus Titer-Day Area Under Curve (HSV-2 (MS strain) [2]; started +6h): 1.7
- # Infected/# Inoculated (HSV-2 (MS strain) [2]; started +24h): 10/10
- Mean Peak Virus Titer (HSV-2 (MS strain) [2]; started +24h): 4.1
- Virus Titer-Day Area Under Curve (HSV-2 (MS strain) [2]; started +24h): 14.5
- infectivity rate (HSV-2 (MS strain) [2]): 50%
- EC50 (HSV-2): > 4
- IC50 (HSV-2): 7.0
- EC50 (HSV-1): > 4
- IC50 (HSV-1): 7.0

Compound: CC([O-])=CC(C)=NCCN=C(C)C=C(C)[O-].[Cl-].[Co+3].c1c[nH]cn1.c1c[nH]cn1 [Compound 82]
- Lesion Score-Day Area Under Curve (HSV-2 (MS strain) [1]; started +6h): 3.5
- Mean Peak Lesion Score (HSV-2 (MS strain) [1]; started +6h): 0.7
- P-Value for Mean Peak Lesion Score (HSV-2 (MS strain) [1]; started +6h): < 0.001
- Lesion Score-Day Area Under Curve (HSV-2 (MS strain) [1]; started +24h): 53.8
- Mean Peak Lesion Score (HSV-2 (MS strain) [1]; started +24h): 3.4
- # Infected/# Inoculated (HSV-2 (MS strain) [2]; started +6h): 5/10
- Mean Peak Virus Titer (HSV-2 (MS strain) [2]; started +6h): 1.1
- P-Value for Mean Peak Virus Titer (HSV-2 (MS strain) [2]; started +6h): < 0.001
- Virus Titer-Day Area Under Curve (HSV-2 (MS strain) [2]; started +6h): 3.3
- # Infected/# Inoculated (HSV-2 (MS strain) [2]; started +24h): 10/10
- Mean Peak Virus Titer (HSV-2 (MS strain) [2]; started +24h): 4.6
- Virus Titer-Day Area Under Curve (HSV-2 (MS strain) [2]; started +24h): 26.4
- effect on virus titer AUC (HSV-2 (MS strain) [2]; started +24 h): failed to alter the virus titer AUC
- infectivity rate (HSV-2 (MS strain) [2]): 50%

Compound: CC(=NCCN=C(C)C(Cl)=C(C)[O-])C(Cl)=C(C)[O-].[Br-].[Co+3].c1c[nH]cn1.c1c[nH]cn1 [Compound 93]
- solubility at 5 and 2 mg/ml [3]: not to be soluble

Compound: CC([O-])=CC(C)=NCCN=C(C)C=C(C)[O-].Cc1ncc[nH]1.Cc1ncc[nH]1.[Br-].[Co+3] [Compound 96]
- solubility of stock solution at 1 mg/ml [3]: moderately insoluble
- EC50 (HSV-2): > 4
- IC50 (HSV-2): 10.2
- EC50 (HSV-1): > 4
- IC50 (HSV-1): 10.2
